Experiment [1] concerns HL-60 cells (myelogenous leukemia cell lines). Nature of the experiment: Inhibition of multiplication of HL-60 cells ([3H]thymidine incorporation). The format is cell-based. As to conditions: Homo sapiens; HL-60 cells 2 x 10⁵cells/mℓ in GIT medium; 20 hours incubation then 4 hours with [³H]thymidine; 50% of the control group; read-out: Inhibition of Propagation of HL-60 cells(IC₅₀ : µg/mℓ). The protocol: The effect of the compound of this invention in inhibiting multiplication of myelogenous leukemia cells (HL-60) is shown in Table 1. The assay was conducted as follows. HL-60 cells (myelogenous leukemia cell lines) were suspended (2 x 10⁵cells/mℓ) in a GIT culture medium (Wako Pure Chemical Industries, Ltd.). Each hole of a 96-hole Microwell plate was inoculated with 0.2 mℓ of the suspension. The plate was incubated statically for 20 hours (37°C and 5% CO₂), to which was added 1 µCi of [³H]thymidine(5 Ci/mmol.), and the incubation was continued for further 4 hours. For determination of the amount of thymidine incorporated into cells, acid-insoluble fractions were collected with a glass-filter, and the radioactivity was determined by means of a liquid scintillation counter. The concentration of the drug required for reducing the radioactivity incorporated into cells to 50% of the control group was assumed to be IC₅₀ value of the compound.

Experiment [2] concerns Sarcoma 180 cells. The experiment in a line: Antitumor action, intraperitoneal Sarcoma 180 in mice, life-span and survivors. The experiment is classed as in vivo. As to conditions: ICR mice, 1 x 10⁵ Sarcoma 180 cells i.p.; for Life-span prolonggation ratio (T/C,%): 0.33 mg/mouse i.p. three times (1 hour, 1 day, 2 days after inoculation), calculated only on died mice; for 60th day number of survivors/number of mice tested: 0.33 mg/mouse i.p. three times, 60th day after the initiation of the test. The protocol:
ICR mice (a group consisting of 5 mice) were inoculated intraperitoneally with 1 x 10⁵ Sarcoma 180 cells per mouse. Then, 0.33 mg/mouse of a compound dissolved in physiological saline was intraperitoneally administered three times, i.e. 1 hour, 1 day and 2 days after the inoculation. Shown in Table 2 are the lifespan prolongation ratio against the control group without treatment and the number of surviving mice on the 60th day after the initiation of the test.

In a further experiment the test system is MM46 cells. Nature of the experiment: Antitumor action, intraperitoneal MM46 in mice, life-span and survivors. The format is in vivo. To be noted: C3H/He mice, 1 x 10⁴ MM46 cells i.p.; 0.25 mg/mouse for 4 consecutive days from the second day after inoculation; 60th day after inoculation. The protocol: C3H/He mice (a group consisting of 5 mice) were inoculated intraperitoneally with 1 x 10⁴ MM46 cells per mouse, and given 0.25 mg/mouse of a drug for 4 consecutive days starting from the second day after the inoculation. Shown in Table 3 are the life-span prolongation ratio against the control group without treatment (provided that calculation was made on mice whose survival days were not longer than 60 days) and the number of surviving mice on the 60th day after the inoculation of MM46 cells.

Experiment [3] has as its system Sarcoma 180 cells. The experiment in a line: Antitumor action, subcutaneous Sarcoma 180 in mice, oral dosing, tumor weight. The format is in vivo. As to conditions: ICR mice, 1 x 10⁵ Sarcoma 180 cells in dorsal subcutis; 0.3 mg/mouse orally 9 times from the 8th day; tumor weighed on the 21st day. The protocol:
ICR mice (a group consisting of 6 mice) were inoculated with 1 x 10⁵ Sarcoma 180 cells per mouse in the dorsal subcutis, and then 0.3 mg/mouse of a test compound dissolved in physiological saline was orally administered 9 times starting from the 8th day (8th to 10th, 13th to 17th and 20th days). On the 21st day, a tumor was enucleated, and the weight of the tumor was measured. The ratio of tumor weight of the treated group against that of the control group without treatment by drug is shown in Table 4.

Structures are written as SMILES.

The source of these data is EP0304244A2, “Propanediol derivatives, their production and use” (Takeda Chemical Industries, Ltd., priority 1987, dated 1989).

Consider `CCCCCCCCCCCCCCCCCCOCCCOCCCC[N+](C)(C)C.CS(=O)(=O)[O-]` [Compound of Working Example 1, N-[4-[3-(octadecyloxy)propoxy]butyl]N,N,N-trimethylammonium methanesulfonate], for which the IC50 in experiment [1] is 1.25 µg/mL. Moreover, in the experiment with Sarcoma 180 cells [2], the “Life-span prolonggation ratio (T/C,%)” value was 295% and the “60th day number of survivors/number of mice tested” value is 2/5. Further, the “60th day No. of survivors/No. of mice tested” value in the experiment with MM46 cells was 5/5. In the case of `CCCCCCCCCCCCCCCCCCOCCCOCCCC[n+]1ccccc1.CS(=O)(=O)[O-]` [Compound of Working Example 2, N-[4-[3-(octadecyloxy)propoxy]butyl]pyridinium methanesulfonate], the IC50 in experiment [1] was 0.62 µg/mL. For `CCCCCCCCCCCCCCCCCCOCCCOCCCCCC[N+](C)(C)C.[Br-]` [Compound of Working Example 3, 6-[3-(octadecyloxy)propoxy]hexyl-N,N,N-trimethylammonium bromide], the IC50 in experiment [1] was found to be 1.25 µg/mL. Further, in the experiment on Sarcoma 180 cells [2], the “Life-span prolonggation ratio (T/C,%)” value is 342% and the “60th day number of survivors/number of mice tested” value was 2/5. In addition, the “Weight of tumor (T/C,%)” value in the experiment with Sarcoma 180 cells [3] is listed as 24%.

Consider `CCCCCCCCCCCCCCCCCCOCCCOCCC[N+](C)(C)C.[Br-]` [Compound of Working Example 4, 3-[3-(octadecyloxy)propoxy]propyl-N,N,N-trimethylammonium bromide], for which, in experiment [1], the IC50 came to 1.25 µg/mL. As for `CCCCCCCCCCCCCCCCCCOCCCOCCCCCCCC[N+](C)(C)C.[Cl-]` [Compound of Working Example 5, N-[8-[3-(octadecyloxy)propoxy]octyl]N,N,N-trimethylammonium chloride], in experiment [1], the IC50 came to 5 µg/mL. On the same count and under the same terms, the same measure for `CCCCCCCCCCCCCCCCCCOCCCOCCCCC[N+](C)(C)C.[Cl-]` [Compound of Working Example 7, N-[5-[3-(octadecyloxy)propoxy]pentyl]N,N,N-trimethylammonium chloride]: 2.5 µg/mL; for `CCCCCCCCCCCCCCCCCCOCCCOCCCCC[n+]1ccccc1.[Cl-]` [Compound of Working Example 8, N-[5-[3-(octadecyloxy)propoxy]pentyl]pyridinium chloride]: 1.25 µg/mL.
